Consider 8 compounds from patent US20080031986A1 (Metaproteomics, LLC, priority 2005, published 2008).

For one test, the system named is 3T3-L1 adipocytes. Description: Lipogenesis (Oil Red O / BODIPY) in 3T3-L1 adipocytes. The format is cell-based, murine. The conditions noted are these: for adipogenic response versus positive controls indomethacin and troglitazone: Day 0 to D6/7.
In test [1] the test system is TNFα-treated 3T3-L1 adipocytes. The test can be described thus: Adiponectin secretion from TNFα-treated 3T3-L1 adipocytes. The class given is cell-based, murine. Conditions: for maximum increase of adiponectin secretion over TNFα solvent control: 10 ng TNFα/ml.
Protocol: 3T3-L1 cells were seeded at an initial density of 1×10^4 cells/cm^2 in 96-well plates. For two days, the cells were allowed grow to reach confluence. Following confluence, the cells were forced to differentiate into adipocytes by the addition of differentiation medium; this medium consisted of (1) 10% FBS/DMEM (high glucose); (2) 0.5 mM methylisobutylxanthine; (3) 0.5 μM dexamethasone and (4) 10 μg/ml insulin (MDI medium). From Day 3 through Day 5, the medium was changed to post-differentiation medium consisting of 10% FBS in DMEM. […] On Day 6, the supernatant medium was sampled for adiponectin determination.
Statistical Calculations and Interpretation—All assays were preformed in duplicate. […] Differences among the doses and test agents were determined using the Student's t-test without correction for multiple comparisons; the nominal five percent probability of a type I error was selected.
The next test deals with DBA/J mice. The test can be described thus: Collagen induced rheumatoid arthritis murine model. The format is in vivo, mouse. Conditions: 10 mg/kg, days 30-42.
Another test concerns COX-2. Conditions: Warner et al. 1999; cited from earlier work.
For another test, the system named is db/db mice. Description: Non-fasting serum glucose and insulin in db/db diabetic mice. The format is in vivo, mouse. Conditions: three daily doses by gavage.
Test [2] concerns insulin-resistant 3T3-L1 adipocytes. The test can be described thus: Adiponectin secretion from insulin-resistant 3T3-L1 adipocytes. The format is cell-based, murine. The conditions noted are these: slope of Hofstee plot.
Protocol: 3T3-L1 cells were seeded at an initial density of 1×10^4 cells/cm^2 in 96-well plates. For two days, the cells were allowed grow to reach confluence. Following confluence, the cells were forced to differentiate into adipocytes by the addition of differentiation medium; this medium consisted of (1) 10% FBS/DMEM (high glucose); (2) 0.5 mM methylisobutylxanthine; (3) 0.5 μM dexamethasone and (4) 10 μg/ml insulin (MDI medium). From Day 3 through Day 5, the medium was changed to post-differentiation medium consisting of 10 μg/ml insulin in 10% FBS/DMEM.
Briefly, on Day 6, cells were maintained in serum-free media containing 0.5% bovine serum albumin (BSA) for three hours and then treated with 1 μg insulin/ml plus solvent or insulin plus test material. […] Twenty-four hours later, the supernatant medium was sampled for adiponectin determination.
Statistical Calculations and Interpretation—All assays were preformed in duplicate. […] Differences between the doses were determined using the student's t-test without correction for multiple comparisons; the nominal five percent probability of a type I error was selected.
Substituting {relative adiponectin secretion/[concentration]} for the independent variable v/[S] and {relative adiponectin secretion} for the dependant variable {v}, produced a relationship of the form y=mx+b. […]

Protocol for db/db mice: The Model—Male, C57BLKS/J m^+/m^+Lepr^db (db/db) mice were used to assess the potential of the test materials to reduce fasting serum glucose or insulin concentrations.
Testing Procedure—Test substances were administered daily by gavage in 0.2% Tween-80. Serum was collected from the retroorbital sinus before the initial dose and ninety minutes after the third and final dose. Non-fasting serum glucose was determined enzymatically by the mutarotase/glucose oxidase method and serum insulin was determined by a mouse specific ELISA.

As for Beta acids, the “adipogenic response versus positive controls indomethacin and troglitazone” value in the test on 3T3-L1 adipocytes was “comparable to indomethacin and troglitazone”.
`CCc1ccc(CCOc2ccc(CC3SC(=O)NC3=O)cc2)nc1` (centres unmarked) [Pioglitazone, pioglitazone]: the “maximum increase of adiponectin secretion over TNFα solvent control” value in test [1] is given as 80%. The “Adiponectin Index, Observed” value in test [1] (1.0 μg/ml, indexed to TNFα control (Table 26)) is listed as 1.80.
For `Cc1c(C)c2c(c(C)c1O)CCC(C)(COc1ccc(CC3SC(=O)NC3=O)cc1)O2` (centres unmarked) [Troglitazone, troglitazone], the “maximum increase of adiponectin secretion over TNFα solvent control” value in test [1] was 51%.
As to `C[C@]12C=CC(=O)C=C1CC[C@@H]1[C@@H]2[C@@H](O)C[C@@]2(C)[C@H]1CC[C@]2(O)C(=O)CO` [prednisolone], the arthritic index result with DBA/J mice is on record as “Significant reductions”.
With `CC(=O)Oc1ccccc1C(=O)O` [Aspirin, aspirin], the “published values for direct COX-2 inhibition” value with COX-2 was 1.4 to 50 µg/mL.
In the case of `COc1cc(O)c(CC=C(C)C)c(O)c1C(=O)/C=C/c1ccc(O)cc1` [Xanthohumol, xanthohumol], the “serum glucose or insulin” value with db/db mice is given as “reduction in serum glucose with no effect on insulin”. The “adipogenic response versus positive controls indomethacin and troglitazone” value with 3T3-L1 adipocytes was “comparable to indomethacin and troglitazone”.
Regarding `CC(C)CCC1=C(O)C(C(=O)C(C)C)=C(O)C(CCC(C)C)(CCC(C)C)C1=O` [Hexahydro colupulone, hexahydrocolupulone], the “Test Material at Half Maximal Secretion” value in test [2] is 3.2 µg/mL. Also, in the test on 3T3-L1 adipocytes, the “adipogenic response versus positive controls indomethacin and troglitazone” value is “failed to elicit a lipogenic response greater than the solvent controls”.
Regarding `CN(C)C(=N)N=C(N)N` [metformin, reference compound], in the test with 3T3-L1 adipocytes (Oil Red O, Acacia samples 50 μg/ml), the “lipogenic response / lipogenic index relative to solvent control” value was found to be 0.79.
